Measured values published in US10369133B2, “Immunosuppressive compounds and therapeutics” (UNIVERSITY OF TENNESSEE RESEARCH FOUNDATION, priority 2013, dated 2019).

Key:
[1] = system: INS-1E cells; assay: TUNEL assay of INS-1E cells; assay type: cell-based; settings: 20 μM
Procedure: (§1) Results are presented as the mean±S.D., n=3. […] Apoptotic cells were stained in dark (arrows). […] Islet was collected and dispersed with 0.25% Trypsin/EDTA into single cell suspension. P3 indicated the percentage of apoptotic cells. All experiments were performed in triplicates. Results are presented as the mean±SD. *p<0.05 as determined by an unpaired Student's t-test, n=6.
The apoptosis of INS-1E cells was analyzed using terminal deoxynucleotidyl transferase dUTP nick end labeling (TUNEL). Briefly, following JP-3-110 treatment for 48 h and cytokine cocktail treatment for additional 48 h, INS-1E cells were characterized by the DeadEnd™ Colorimetric TUNEL system (Promega, Madison, Wis., USA), in which fragmented DNA from apoptotic cells was labeled with biotinylated nucleotide and detected using hydrogen peroxide and diaminobenzidine. For human islets, following treatment with JP-3-110 and cytokines, human islets were digested with 0.25% trypsin/EDTA into a single-cell suspension, stained with the Annexin V-FITC Apoptosis Detection Kit (Abcam, Cambridge, Mass.) and analyzed with flow cytometry. Annexin V binds to phosphatidylserine on the cell surface, which is a feature found in apoptotic cells. Fluorescent intensity was analyzed using CellQuest software (BD Bioscience, Franklin Lakes, N.J.). […]
We then determined the conjugation with TNP can reduce the pro-apoptotic effect of MPA. […]

[2] = system: NF-κB; assay: NF-κB SEAP reporter gene assay in INS-1E cells; assay type: cell-based, rat; settings: for NF-κB activities in INS-1E cells: printed "at 504" (FIG. 2B: 5 μM), cytokine cocktail 10 ng/mL TNFα, 5 ng/mL IL-1β, 10 ng/mL IFN-γ, 24 hours
Procedure: Briefly, a plasmid construct containing NF-kB promoter and SEAP gene was transferred into INS-1E cells by lipofectamine. SEAP was then expressed and secreted into culture supernatant and allowed […] detection using a substrate PNPP under 405 nm. […] NF-kB activity was measured 24 hours after addition of cytokine cocktail (10 ng/mL TNFα, 5 ng/mL IL-1β and 10 ng/mL IFN-γ) alone or with JP-3-110 (5 μM) or TNP (5 μM) or MPA (5 μM). Blank, no cytokine stimulation. Cyt, cytokine cocktail. Results are presented as the mean±S.D., n=3.
INS-1E cells which were stably transfected with the SEAP gene containing the response-element for NF-κB were used to screen for anti-inflammatory activity. Briefly, 10^6 cells/well were seeded overnight followed by treatment with 10 ng/mL human recombinant TNFα and either TNP or hybrid drug JP-3-110 (1 μM). SEAP activity was measured 18 h later in supernatant samples (50 µL) using the NF-κB SEAPorter™ Assay Kit (IMGENEX, San Diego, Calif.) and a microplate luminometer. SEAP activity was normalized to the total protein content.

[3] = system: human PBMCs in NSG mice; assay: Immunosuppressive effect in humanized NSG mice; assay type: in vivo, mouse; settings: for amount of human CD3+ T cells in the mouse spleen / serum human IgG level: 50 mg/kg intraperitoneally, consecutive 7 shots, compared with saline
Procedure: Human PBMCs (5×10^6/mouse) were injected intraperitoneally into NSG mice to introduce human immunity. Sections were stained to indicate human CD3+ T cells (red) and counterstained with DAPI (blue). […] Results are presented as the mean±S.D., n=5.
Human PBMCs were isolated from buffy coats by gradient centrifugation using Ficoll Paque. The T cells and B cells of PBMCs were stained with FITC conjugated CD3 antibody and APC conjugated CD19 antibody, respectively, and characterized using flow cytometry. The PBMCs were infused into diabetic NSG mice at the concentration of 5×10^6/mouse to establish human immunity. The settlement of T cells in the spleen was assessed by immunofluorescence staining. Briefly, spleen were isolated, washed with PBS, fixed in 4% paraformaldehyde overnight, and embedded in optimal cutting temperature compound. Frozen sections of 5 μm thickness were cut. The slides were stained with rabbit anti-human CD3 primary antibody (1:200) at 4° C. overnight and Alexa Fluor 568 conjugated goat anti-rabbit secondary antibody (1:500) at room temperature for 1 h. The function of B cells was assessed by measuring human IgG concentration in the mouse blood.
To test the immunosuppressive effect of JP-3-110 in vivo, a humanized mouse model was used. Briefly, human PBMCs (5×10^6/mouse) were adoptively transferred into immunodeficient NSG mice to build human immunity. The human IgG level in the serum and human CD3+ T cell staining in the spleen was used to confirm the existence of human immunity (FIG. 8B). JP-3-110 and MPA was administrated intraperitoneally at 50 mg/kg for consecutive 7 shots.

[4] = system: human CD3+ T cells; assay: Mixed lymphocyte reaction: proliferation of PHA-stimulated T cells; assay type: cell-based; settings: PHA 1 μg/mL; 5 μM; in 4 days
Procedure: Briefly, human peripheral blood mononuclear cells PBMCs were isolated from human buffy coat using Ficoll-Paque. […] Results are presented as the mean±S.D., n=6.
PBMCs were isolated using Ficoll Paque. T cells were isolated from PBMCs using Dynabeads for. T cells were stimulated with PHA (1 μg/ml) for 24 h alone or in the presence of TNP (5 μM) or JP-3-110 (5 μM) for additional 4 days. The total number of PBMCs was measured using T4 Automatic Cell Counter (Nexcelom, Lawrence, Mass.). The extent of T cell activation was determined by measuring the level of IL-2, IL-2sRa, TNFα and IFN-γ in the medium using ELISA at indicated time.
Mixed lymphocytes reaction was used to determine the immunosuppressive effects of MPA and JP-3-110. T cells were purified using dynabeads from peripheral blood mononuclear cells (PBMCs), which were initially isolated from human buffy coat (FIG. 8A). […] The levels of IL-2, IL-2sRa, TNFα and IFNγ were detected by ELISA to study the effects of JP-3-110 and MPA on T cell activation.

[5] = system: INS-1E cells; assay: Caspase 3 activity in INS-1E cells (Caspase-Glo 3); assay type: cell-based; settings: 20 μM (each), 2 days
Procedure: as §1
A cytokine cocktail (5 ng/ml TNFα and 5 ng/ml IL-1β) was used to mimic the in vivo challenge to the INS-1E cells and human islets by the inflammatory cytokines. Caspase-Glo 3 assay kits were used to analyze caspase 3 as per the manufacturer's protocol (Promega, Madison, Wis.). This assay kit provides a proilluminescent caspase substrate, DEVD, that, when cleaved by caspases, will release luciferin to quantitatively determine caspase concentration. […] The contents were then transferred into culture tubes, and luminescence was determined using a luminometer (Berthold, Germany).
We then determined the conjugation with TNP can reduce the pro-apoptotic effect of MPA. […] We first measured the caspase 3 activities of insulin-producing INS-1E cells under the stimulation of MPA alone, or MPA with free TNP, or JP-3-110 (MPA conjugated with TNP). […]

SMILES	apoptotic cell death (TUNEL) [1]	reduction in NF-κB activities compared among the three groups ([2]; MPA, TNP and JP-3-110 compared, cytokine cocktail)	NF-κB activities in INS-1E cells [2]	amount of human CD3+ T cells in the mouse spleen [3]	serum human IgG level [3]	proliferation of T cells [4]	caspase 3 activity [5]	immunosuppressive effect, MPA compared with JP-3-110 ([3]; humanized NSG mice, 50 mg/kg each)
CCCCNC(=O)[C@]1(O)C[C@@H](O)[C@@H](O)[C@H](OC(=O)CC/C(C)=C/Cc2c(OC)c(C)c3c(c2OC(C)=O)C(=O)OC3)C1 [JP-3-110, (1R,2R,3R,5S)-5-(butylcarbamoyl)-2,3,5-trihydroxycyclohexyl (E)-6-(4-acetoxy-6-methoxy-7-methyl-3-oxo-1,3-dihydroisobenzofuran-5-yl)-4-methylhex-4-enoate]	effectively reversed	most reduction	significantly reduced	significantly reduced	significantly reduced	equally potent as MPA	effectively reversed the elevation of caspase 3 activity	
COc1c(C)c2c(c(O)c1C/C=C(\C)CCC(=O)O)C(=O)OC2 [MPA, mycophenolic acid, reference compound]	apoptotic cell death		significantly reduced	significantly reduced	significantly reduced	suppress the proliferation of T cells	elevation of caspase 3 activity	slightly better immunosuppressive effect than JP-3-110
